Columns and labels:
SARS-CoV-1 = type: cell-based
SARS-CoV-2 = type: cell-based
MERS = type: cell-based

SMILES: CNCc1ccc(-c2cc(-c3nc(-c4ccc(S(=O)(=O)C(C)C)cc4)cnc3N)on2)cc1 [Compound 1, 3-[3-(4-Methylaminomethyl-phenyl)-isoxazol-5-yl]-5-[4-(propane-2-sulfonyl)-phenyl]-pyrazin-2-ylamine]
- inhibition of virus replication (SARS-CoV-1): dose dependent inhibition
- inhibition in cells infected by SARS-CoV-2 compared with remdesivir (SARS-CoV-2): comparable with that of the antiviral reference substance remdesivir
- inhibition of virus replication (SARS-CoV-2): dose dependent inhibition
- cell viability (Calu-3): remains nearly unaffected
- inhibition of virus replication (MERS): dose dependent inhibition

Source: US20230301991A1, “COMPOUNDS FOR THE TREATMENT OF VIRAL INFECTIONS” (priority 2020, published 2023)
